Measurements reported in paper PMC11111691, “Cystine-knot peptide inhibitors of HTRA1 bind to a cryptic pocket within the active site region” (Nature Communications, 2024).
Positions of bridges follow the written chain, without caps; N, C: chain ends. Non-standard residues stand in square brackets, D forms with d. Residues, ends and D or L forms follow the SMILES beside them. Tyr(3-Cl) = N[C@@H](Cc1ccc(O)c(Cl)c1)C(=O)O

target: T1, HTRA1^FL (Homo sapiens, UniProt Q92743); assay: HTRA1^FL enzyme inhibition assay with synthetic substrate H2-OPT; type: biochemical
T1 construct: Human full-length HTRA1 (HTRA1^FL, Q23-P480); made in house; host or cells: Trichoplusia ni cells
Procedure: Assays with the fluorescence-quenched synthetic substrate Mca-IRRVSYSFK(Dnp)K (H2-OPT)[38],[60] were carried out essentially as described. CKP stock solutions in DMSO were diluted in TNC buffer (dilution series for IC50 determinations, or final concentration of 2 µM for selectivity assay or as indicated for HTRA1/4 mutants) and incubated with enzymes in 96-well black optical bottom plates for 60 min at 37 °C. For selectivity experiments we used the 7mer-ABP as inhibitor, which was incubated with the proteases for 15 min at 37 °C. A 10 mM stock solution of H2-OPT in DMSO was diluted with water, prewarmed at 37 °C and then added to the CKP-enzyme mixtures. The final concentrations in the reaction mixtures were: 1 nM HTRA1^FL, 3 nM HTRA1^PD/PDZ, 1 nM HTRA1^PD, 1 nM HTRA2^PD/PDZ, 3 nM HTRA3^FL, 60 nM HTRA3^PD/PDZ, 6 nM HTRA4^FL, 1 µM HTRA4^PD/PDZ, 1 nM mouse HTRA1^PD, 25 nM HTRA1^PD-A202Y, 1 µM HTRA4^PD/PDZ-Y200A, 0.5 mM 7mer-ABP, 5 µM H2-OPT, and 0.25% DMSO. The kinetics of substrate cleavage was measured at 37 °C on a SpectraMax M5 microplate reader with excitation of 328 nm and emission of 393 nm. The determined initial rates of cleavage were expressed as percent of control (DMSO control) after subtracting the baseline rates (without enzyme). IC50 values were determined by Sigmoidal 4PL modeling of multiple data points from serial dilutions of CKPs using Prism 9 software (GraphPad). For selectivity assays with HTRA1-4^PD/PDZ constructs, the specific activities of the enzymes and enzyme:CKP inhibitor ratios were as follows: HTRA1^PD/PDZ, 12560 mRFU/min/nM – 1:667; HTRA2^PD/PDZ, 32300 mRFU/min/nM – 1:2000; HTRA3^PD/PDZ, 962 mRFU/min/nM – 1:33; HTRA4^PD/PDZ, 18 mRFU/min/nM – 1:2.

T1 sequence (Q92743 23-480): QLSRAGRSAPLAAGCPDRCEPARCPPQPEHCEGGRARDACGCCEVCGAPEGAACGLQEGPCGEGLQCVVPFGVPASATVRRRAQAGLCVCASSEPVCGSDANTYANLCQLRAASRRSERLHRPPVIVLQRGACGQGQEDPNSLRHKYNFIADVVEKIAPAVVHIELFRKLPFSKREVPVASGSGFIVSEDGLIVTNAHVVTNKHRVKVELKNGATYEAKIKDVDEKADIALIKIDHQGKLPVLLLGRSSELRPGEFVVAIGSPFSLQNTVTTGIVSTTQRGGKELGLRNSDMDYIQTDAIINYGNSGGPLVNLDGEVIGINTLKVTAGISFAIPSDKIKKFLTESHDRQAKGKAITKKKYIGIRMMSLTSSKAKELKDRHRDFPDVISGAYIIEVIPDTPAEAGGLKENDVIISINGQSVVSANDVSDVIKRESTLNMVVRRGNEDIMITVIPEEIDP

Compared with `CC[C@H](C)[C@H](NC(=O)[C@H](CCC(N)=O)NC(=O)[C@H](CCCNC(=N)N)NC(=O)[C@H](CC(C)C)NC(=O)CNC(=O)[C@H](Cc1c[nH]c2ccccc12)NC(=O)CNC(=O)[C@@H]1CSSC[C@@H]2NC(=O)[C@H](CC(=O)O)NC(=O)[C@H](CC(=O)O)NC(=O)[C@H](Cc3c[nH]cn3)NC(=O)[C@H]([C@@H](C)O)NC(=O)[C@H](CCC(=O)O)NC(=O)[C@@H]3CSSC[C@H](NC(=O)[C@H]([C@@H](C)O)NC(=O)[C@H](CCC(N)=O)NC(=O)[C@H](CSSC[C@H](NC(=O)[C@@H](NC(=O)[C@@H]4CCCN4C(=O)[C@H](CC(=O)O)NC(=O)[C@H](C)NC(=O)[C@@H](N)Cc4c[nH]cn4)[C@@H](C)CC)C(=O)N[C@@H](CC(N)=O)C(=O)N[C@@H](CCCCN)C(=O)N4CCC[C@H]4C(=O)N3)NC(=O)[C@H](Cc3ccccc3)NC(=O)[C@H](Cc3c[nH]c4ccccc34)NC(=O)[C@H](C)NC(=O)CNC(=O)[C@H](CO)NC2=O)C(=O)N[C@@H](Cc2ccc(O)cc2)C(=O)N[C@@H](Cc2ccc(O)cc2)C(=O)N[C@@H](C)C(=O)N[C@@H]([C@@H](C)O)C(=O)N[C@@H](Cc2c[nH]c3ccccc23)C(=O)N[C@@H](CO)C(=O)N1)C(=O)N[C@@H](CC(=O)O)C(N)=O` [1A8.K11E] (H-HADPICNKPCETHDDCSGAWFCQTCYYATWSCGWGLRQID-NH2; disulfide 6-22, 10-25, 16-32), `CC[C@H](C)[C@H](NC(=O)[C@H](CCC(N)=O)NC(=O)[C@H](CCCNC(=N)N)NC(=O)[C@H](CC(C)C)NC(=O)CNC(=O)[C@H](Cc1c[nH]c2ccccc12)NC(=O)CNC(=O)[C@@H]1CSSC[C@@H]2NC(=O)[C@H](CC(=O)O)NC(=O)[C@H](CC(=O)O)NC(=O)[C@H](Cc3c[nH]cn3)NC(=O)[C@H]([C@@H](C)O)NC(=O)[C@H](CCCCN)NC(=O)[C@@H]3CSSC[C@H](NC(=O)[C@H]([C@@H](C)O)NC(=O)[C@H](CCC(N)=O)NC(=O)[C@H](CSSC[C@H](NC(=O)[C@@H](NC(=O)[C@@H]4CCCN4C(=O)[C@H](CC(=O)O)NC(=O)[C@H](C)NC(=O)[C@@H](N)Cc4c[nH]cn4)[C@@H](C)CC)C(=O)N[C@@H](CC(N)=O)C(=O)N[C@@H](CCCCN)C(=O)N4CCC[C@H]4C(=O)N3)NC(=O)[C@H](Cc3ccccc3)NC(=O)[C@H](Cc3c[nH]c4ccccc34)NC(=O)[C@H](C)NC(=O)CNC(=O)[C@H](CO)NC2=O)C(=O)N[C@@H](Cc2ccc(O)cc2)C(=O)N[C@@H](Cc2ccc(O)cc2)C(=O)N[C@@H](C)C(=O)N[C@@H](CO)C(=O)N[C@@H](Cc2c[nH]c3ccccc23)C(=O)N[C@@H](CO)C(=O)N1)C(=O)N[C@@H](CC(=O)O)C(N)=O` [1A8.L5.2] (H-HADPICNKPCKTHDDCSGAWFCQTCYYASWSCGWGLRQID-NH2; disulfide 6-22, 10-25, 16-32) is 2-fold higher in IC50: 1 ± 0.3 nM for the first, 2 ± 0.2 nM for the second. The first is the more potent here.

`CC[C@H](C)[C@H](NC(=O)[C@H](CCC(N)=O)NC(=O)[C@H](CCCNC(=N)N)NC(=O)[C@H](CC(C)C)NC(=O)CNC(=O)[C@H](Cc1c[nH]c2ccccc12)NC(=O)CNC(=O)[C@@H]1CSSC[C@@H]2NC(=O)[C@H](CC(=O)O)NC(=O)[C@H](CC(=O)O)NC(=O)[C@H](Cc3c[nH]cn3)NC(=O)[C@H]([C@@H](C)O)NC(=O)[C@H](CCCCN)NC(=O)[C@@H]3CSSC[C@H](NC(=O)[C@H]([C@@H](C)O)NC(=O)[C@H](CCC(N)=O)NC(=O)[C@H](CSSC[C@H](NC(=O)[C@@H](NC(=O)[C@@H]4CCCN4C(=O)[C@H](CC(=O)O)NC(=O)[C@H](C)NC(=O)[C@@H](N)Cc4c[nH]cn4)[C@@H](C)CC)C(=O)NCC(=O)N[C@@H](CO)C(=O)N[C@@H](CCC(N)=O)C(=O)N3)NC(=O)[C@H](Cc3ccccc3)NC(=O)[C@H](Cc3c[nH]c4ccccc34)NC(=O)[C@H](C)NC(=O)CNC(=O)[C@H](CO)NC2=O)C(=O)N[C@@H](Cc2ccc(O)cc2)C(=O)N[C@@H](Cc2ccc(O)cc2)C(=O)N[C@@H](C)C(=O)N[C@@H]([C@@H](C)O)C(=O)N[C@@H](Cc2c[nH]c3ccccc23)C(=O)N[C@@H](CO)C(=O)N1)C(=O)N[C@@H](CC(=O)O)C(N)=O` [1A8.L1.1] (H-HADPICGSQCKTHDDCSGAWFCQTCYYATWSCGWGLRQID-NH2; disulfide 6-22, 10-25, 16-32) and `CC[C@H](C)[C@H](NC(=O)[C@H](CCC(N)=O)NC(=O)[C@H](CCCNC(=N)N)NC(=O)[C@H](CC(C)C)NC(=O)CNC(=O)[C@H](Cc1c[nH]c2ccccc12)NC(=O)CNC(=O)[C@@H]1CSSC[C@@H]2NC(=O)[C@H](CC(=O)O)NC(=O)[C@H](CC(=O)O)NC(=O)[C@H](Cc3c[nH]cn3)NC(=O)[C@H]([C@@H](C)O)NC(=O)[C@H](CCCCN)NC(=O)[C@@H]3CSSC[C@H](NC(=O)[C@H]([C@@H](C)O)NC(=O)[C@H](CCC(N)=O)NC(=O)[C@H](CSSC[C@H](NC(=O)[C@@H](NC(=O)[C@@H]4CCCN4C(=O)[C@H](CC(=O)O)NC(=O)[C@H](C)NC(=O)[C@@H](N)Cc4c[nH]cn4)[C@@H](C)CC)C(=O)NCC(=O)N[C@@H](Cc4c[nH]cn4)C(=O)N[C@@H](CCC(N)=O)C(=O)N3)NC(=O)[C@H](Cc3ccccc3)NC(=O)[C@H](Cc3c[nH]c4ccccc34)NC(=O)[C@H](C)NC(=O)CNC(=O)[C@H](CO)NC2=O)C(=O)N[C@@H](Cc2ccc(O)cc2)C(=O)N[C@@H](Cc2ccc(O)cc2)C(=O)N[C@@H](C)C(=O)N[C@@H]([C@@H](C)O)C(=O)N[C@@H](Cc2c[nH]c3ccccc23)C(=O)N[C@@H](CO)C(=O)N1)C(=O)N[C@@H](CC(=O)O)C(N)=O` [1A8.L1.2] (H-HADPICGHQCKTHDDCSGAWFCQTCYYATWSCGWGLRQID-NH2; disulfide 6-22, 10-25, 16-32) are within 1.5-fold of each other in IC50: 2.3 ± 0.1 nM for the first, 3.2 ± 0.1 nM for the second.

First: CC[C@H](C)[C@H](NC(=O)[C@H](CCC(N)=O)NC(=O)[C@H](CCCNC(=N)N)NC(=O)[C@H](CC(C)C)NC(=O)CNC(=O)[C@H](Cc1c[nH]c2ccccc12)NC(=O)CNC(=O)[C@@H]1CSSC[C@@H]2NC(=O)[C@H](CC(=O)O)NC(=O)[C@H](CC(=O)O)NC(=O)[C@H](Cc3c[nH]cn3)NC(=O)[C@H]([C@@H](C)O)NC(=O)[C@H](CCCCN)NC(=O)[C@@H]3CSSC[C@H](NC(=O)[C@H]([C@@H](C)O)NC(=O)[C@H](CCC(N)=O)NC(=O)[C@H](CSSC[C@H](NC(=O)[C@@H](NC(=O)[C@@H]4CCCN4C(=O)[C@H](CC(=O)O)NC(=O)[C@H](C)NC(=O)[C@@H](N)Cc4c[nH]cn4)[C@@H](C)CC)C(=O)N[C@@H](CC(N)=O)C(=O)N[C@@H](CCCCN)C(=O)N4CCC[C@H]4C(=O)N3)NC(=O)[C@H](Cc3ccccc3)NC(=O)[C@H](Cc3c[nH]c4ccccc34)NC(=O)[C@H](C)NC(=O)CNC(=O)[C@H](CO)NC2=O)C(=O)N[C@@H](Cc2ccc(O)cc2)C(=O)N[C@@H](Cc2ccc(O)cc2)C(=O)N[C@@H](C)C(=O)N[C@@H](CC(N)=O)C(=O)N[C@@H](Cc2c[nH]c3ccccc23)C(=O)N[C@@H](CO)C(=O)N1)C(=O)N[C@@H](CC(=O)O)C(N)=O [1A8.L5.1] (H-HADPICNKPCKTHDDCSGAWFCQTCYYANWSCGWGLRQID-NH2; disulfide 6-22, 10-25, 16-32)
Second: CC[C@H](C)[C@H](NC(=O)[C@H](CCC(N)=O)NC(=O)[C@H](CCCNC(=N)N)NC(=O)[C@H](CC(C)C)NC(=O)CNC(=O)[C@H](Cc1c[nH]c2ccccc12)NC(=O)CNC(=O)[C@@H]1CSSC[C@@H]2NC(=O)[C@H](CC(=O)O)NC(=O)[C@H](CC(=O)O)NC(=O)[C@H](Cc3c[nH]cn3)NC(=O)[C@H]([C@@H](C)O)NC(=O)[C@H](CCCCN)NC(=O)[C@@H]3CSSC[C@H](NC(=O)[C@H]([C@@H](C)O)NC(=O)[C@H](CCC(N)=O)NC(=O)[C@H](CSSC[C@H](NC(=O)[C@@H](NC(=O)[C@@H]4CCCN4C(=O)[C@H](CC(=O)O)NC(=O)[C@H](C)NC(=O)[C@@H](N)Cc4c[nH]cn4)[C@@H](C)CC)C(=O)N[C@@H](CC(N)=O)C(=O)N[C@@H](CCCCN)C(=O)N4CCC[C@H]4C(=O)N3)NC(=O)[C@H](Cc3ccccc3)NC(=O)[C@H](Cc3c[nH]c4ccccc34)NC(=O)[C@H](C)NC(=O)CNC(=O)[C@H](CO)NC2=O)C(=O)N[C@@H](Cc2ccc(O)c(Cl)c2)C(=O)N[C@@H](Cc2ccc(O)cc2)C(=O)N[C@@H](C)C(=O)N[C@@H]([C@@H](C)O)C(=O)N[C@@H](Cc2c[nH]c3ccccc23)C(=O)N[C@@H](CO)C(=O)N1)C(=O)N[C@@H](CC(=O)O)C(N)=O [1A8.Y26Y(3Cl)] (H-HADPICNKPCKTHDDCSGAWFCQTC[Tyr(3-Cl)]YATWSCGWGLRQID-NH2; disulfide 6-22, 10-25, 16-32)
The IC50 of the first is 2.4-fold lower: 1 ± 0.1 nM for the first, 2.4 ± 0.3 nM for the second. The first is the more potent here.
